Laboratory results as given in the supplement of paper PMC11061612.

Assays:
Assay in all cases: combination Emax (second highest fraction inhibited in the dose matrix, 72 h); higher = more inhibition; extreme values may be limits of the assay
[1] = tested on: NKM-1 (Acute Myeloid Leukemia)
In short: (§1)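 Bliss excess equals the observed combination effect minus the expected value EA + EB − EA·EB, where EA and EB are the effects of each agent alone. Combination Emax is the second-highest inhibition within the matrix. Inhibition was scaled from CellTiter-Glo 2.0 luminescence, with 0 set by vehicle wells and 1 by blank wells, after 72 hours of two-drug dosing of cells plated in 1536-well plates.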

KYM-1 (Rhabdomyosarcoma) = tested on: KYM-1 (Rhabdomyosarcoma)
In short: as §1

[2] = tested on: COLO-684 (Endometrial Carcinoma)
In short: as §1

[3] = tested on: NCI-H196 (Small Cell Lung Carcinoma)
In short: as §1

[4] = tested on: SNU-175 (Colorectal Carcinoma)
In short: as §1

CHL-1 (Melanoma) = tested on: CHL-1 (Melanoma)
In short: as §1

[5] = tested on: CML-T1 (Chronic Myelogenous Leukemia)
In short: as §1

[6] = tested on: EB-3 (Burkitt's Lymphoma)
In short: as §1

[7] = tested on: RMG-I (Ovarian Carcinoma)
In short: as §1

[8] = tested on: NCI-H1623 (Lung Adenocarcinoma)
In short: as §1

[9] = tested on: BALL-1 (B-Lymphoblastic Leukemia)
In short: as §1

[10] = tested on: PC-14 (Lung Adenocarcinoma)
In short: as §1

[11] = tested on: PANC-02-03 (Pancreatic Carcinoma)
In short: as §1

[12] = tested on: RERF-LC-KJ (Lung Adenocarcinoma)
In short: as §1

[13] = tested on: KYSE-70 (Esophageal Squamous Cell Carcinoma)
In short: as §1

HuO-3N1 (Osteosarcoma) = tested on: HuO-3N1 (Osteosarcoma)
In short: as §1

[14] = tested on: RL95-2 (Endometrial Carcinoma)
In short: as §1

[15] = tested on: NCI-H1563 (Lung Adenocarcinoma)
In short: as §1

[16] = tested on: Becker (Low Grade Glioma)
In short: as §1

[17] = tested on: AN3-CA (Endometrial Carcinoma)
In short: as §1

Structure (SMILES) | combination Emax [1] | combination Emax (KYM-1 (Rhabdomyosarcoma)) | combination Emax [2] | combination Emax [3] | combination Emax [4] | combination Emax (CHL-1 (Melanoma)) | combination Emax [5] | combination Emax [6] | combination Emax [7] | combination Emax [8] | combination Emax [9] | combination Emax [10] | combination Emax [11] | combination Emax [12] | combination Emax [13] | combination Emax (HuO-3N1 (Osteosarcoma)) | combination Emax [14] | combination Emax [15] | combination Emax [16] | combination Emax [17]
CN(CCO)CC[C@H](CSc1ccccc1)Nc1ccc(S(=O)(=O)NC(=O)c2ccc(N3CCC([C@@H](O)c4ccccc4-c4ccc(Cl)cc4)CC3)cc2)cc1S(=O)(=O)C(F)(F)F [AZD4320] + C1CN(CCC1(C(=O)N[C@@H](CCO)C2=CC=C(C=C2)Cl)N)C3=NC=NC4=C3C=CN4 [Capivasertib] (first compound max 1 µM, 7x7, partner max 3 µM) | 1 | 0.0568 | 0.447 | 0.175 | 0.501 | 0.0871 | 0.977 | 0.191 | 0.708 | 0.278 | 1 | 0.255 | 0.0923 | 0.293 | 0.167 | 0.201 | 0.533 | 0.389 | 0.298 | 0.625
COc1cccc(OCCCN)c1-c1cc(Nc2cnc(C#N)cn2)n[nH]1 [Prexasertib] + Cc1cc2ncnn2cc1Nc1ncc2c(n1)n(C1CCOCC1)c(=O)n2C [AZD7648] (first compound max 1 µM, 7x7, partner max 10 µM) | 0.965 | 0.942 | 0.844 | 0.551 | 0.586 | 0.838 | 0.98 | 0.791 | 0.678 | 0.804 | 0.999 | 0.861 | 0.609 | 0.416 | 0.615 | 0.49 | 0.893 | 0.466 | 0.707 | 0.843
CC1(C)CCC(CN2CCN(c3ccc(C(=O)NS(=O)(=O)c4ccc(NCC5CCOCC5)c([N+](=O)[O-])c4)c(Oc4cnc5[nH]ccc5c4)c3)CC2)=C(c2ccc(Cl)cc2)C1 [Venetoclax] + COc1cc(Nc2ncc3c(n2)-c2ccc(Cl)cc2C(c2c(F)cccc2OC)=NC3)ccc1C(=O)O [Alisertib] (first compound max 1 µM, 7x7, partner max 10 µM) | 0.98 | 0.21 | 0.264 | 0.113 | 0.818 | 0.778 | 0.965 | 0.418 | 0.371 | 0.391 | 1 | 0.741 | 0.292 | 0.48 | 0.392 | 0.372 | 0.588 | 0.466 | 0.547 | 0.9
C[C@@H](c1ccc2nccn2c1)n1nnc2ncc(-c3cnn(C)c3)nc21 [Savolitinib] + CN(CC[C@H](CSC1=CC=CC=C1)NC2=C(C=C(C=C2)S(=O)(=O)NC(=O)C3=CC=C(C=C3)N4CCC(CC4)[C@H](C5=CC=CC=C5C6=CC=C(C=C6)Cl)O)S(=O)(=O)C(F)(F)F)CCO [AZD4320] (first compound max 1 µM, 7x7, partner max 1 µM) |  |  |  | 0.2 | 0.349 |  |  |  |  | 0.255 | 1 | 0.173 |  | 0.206 |  | 0.201 | 0.167 | 0.213 |  | 0.217
Cn1cnc2c(F)c(Nc3ccc(Br)cc3Cl)c(C(=O)NOCCO)cc21 [Selumetinib] + CC(C)n1c(=O)n(C)c2cnc3cc(F)c(-c4ccc(OCCCN5CCCCC5)nc4)cc3c21 [AZD1390] (first compound max 10 µM, 7x7, partner max 0.3 µM) | 0.504 | 0.141 | 0.125 | 0.0904 | 0.27 | 0.0273 | 0.628 | 0.215 | 0.362 | 0.276 | 0.24 | 0.326 | 0.414 | 0.2 | 0.168 | 0.129 | 0.372 | 0.161 | 0.235 | 0.0572
CN(C)CCCOc1ccc(-c2ccc3ncc4c(c3c2)n(C2CCOCC2)c(=O)n4C)cn1 [AZD0156] + C=CCn1c(=O)c2cnc(Nc3ccc(N4CCN(C)CC4)cc3)nc2n1-c1cccc(C(C)(C)O)n1 [AZD1775] (first compound max 1 µM, partner max 1 µM) | 0.853 | 0.355 | 0.688 | 0.478 | 0.405 | 0.623 | 0.917 | 0.736 | 0.291 | 0.311 | 0.977 | 0.866 | 0.672 | 0.33 | 0.538 | 0.183 | 0.429 | 0.367 | 0.177 | 0.351
CCc1c2c(nc3ccc(O)cc13)-c1cc3c(c(=O)n1C2)COC(=O)[C@]3(O)CC [SN-38] + CN(C)CCCOc1ccc(-c2ccc3ncc4c(c3c2)n(C2CCOCC2)c(=O)n4C)cn1 [AZD0156] (first compound max 0.3 µM, 7x7, partner max 1 µM) | 0.973 | 0.952 | 0.473 | 0.0732 | 0.478 | 0.567 | 1 | 0.748 | 0.446 | 0.822 | 1 | 0.592 | 0.693 | 0.673 | 0.25 | 0.567 | 0.424 | 0.441 | 0.847 | 0.325
CC1(C)CCC(CN2CCN(c3ccc(C(=O)NS(=O)(=O)c4ccc(NCC5CCOCC5)c([N+](=O)[O-])c4)c(Oc4cnc5[nH]ccc5c4)c3)CC2)=C(c2ccc(Cl)cc2)C1 [Venetoclax] + C[C@@H](Nc1cc(F)cc(F)c1)c1cc(C(=O)N(C)C)cc2c(=O)cc(N3CCOCC3)oc12 [AZD8186] (first compound max 1 µM, 7x7, partner max 3 µM) | 1 | 0.162 | 0.529 | 0.218 | 0.171 | 0.147 | 0.967 | 0.198 | 0.277 | 0.378 | 1 | 0.175 | 0.147 | 0.195 | 0.0812 | 0.269 | 0.106 | 0.431 | 0.418 | 0.457
COc1nnc2ccc(N3CCC(c4ccc(OCCN5CCN(C)C(=O)[C@H]5C)cc4)CC3)nn12 [AZD5153] + Cc1c2c(nn1C)CSCc1cc(n(C)n1)CSc1cc(c3ccccc3c1)OCCCc1c(C(=O)O)n(C)c3c-2c(Cl)ccc13 [AZD5991] (first compound max 1 µM, 7x7, partner max 1 µM) | 1 | 1 | 0.67 | 0.307 | 0.931 | 0.985 | 0.523 | 0.822 | 0.58 | 1 | 0.98 | 0.441 | 0.595 | 0.979 | 0.355 | 0.628 | 0.928 | 0.835 | 0.484 | 0.544
COc1nnc2ccc(N3CCC(c4ccc(OCCN5CCN(C)C(=O)[C@H]5C)cc4)CC3)nn12 [AZD5153] + CN(CC[C@H](CSC1=CC=CC=C1)NC2=C(C=C(C=C2)S(=O)(=O)NC(=O)C3=CC=C(C=C3)N4CCC(CC4)[C@H](C5=CC=CC=C5C6=CC=C(C=C6)Cl)O)S(=O)(=O)C(F)(F)F)CCO [AZD4320] (first compound max 1 µM, 7x7, partner max 1 µM) |  |  |  | 0.276 | 0.759 |  |  |  |  | 0.46 | 1 | 0.421 |  | 0.979 |  | 0.466 | 0.452 | 0.536 |  | 0.255
Cc1c2c(nn1C)CSCc1cc(n(C)n1)CSc1cc(c3ccccc3c1)OCCCc1c(C(=O)O)n(C)c3c-2c(Cl)ccc13 [AZD5991] + CN(C)CCCOc1ccc(-c2ccc3ncc4c(c3c2)n(C2CCOCC2)c(=O)n4C)cn1 [AZD0156] (first compound max 1 µM, 7x7, partner max 1 µM) | 0.967 | 0.268 | 0.332 | 0.205 | 0.458 |  | 0.223 | 0.371 | 0.293 | 0.891 | 0.606 | 0.236 | 0.203 | 0.589 | 0.156 | 0.844 | 0.977 | 0.668 | 0.141 | 0.404
CCc1c2c(nc3ccc(O)cc13)-c1cc3c(c(=O)n1C2)COC(=O)[C@]3(O)CC [SN-38] + O=C(c1cc(Cc2n[nH]c(=O)c3ccccc23)ccc1F)N1CCN(C(=O)C2CC2)CC1 [Olaparib] (first compound max 0.3 µM, 7x7, partner max 10 µM) | 0.987 | 0.875 | 0.514 |  | 0.471 | 0.508 | 1 | 0.682 | 0.421 |  | 1 | 0.696 | 0.728 |  | 0.304 | 0.688 |  |  | 0.818 | 
CC(=O)c1c(C)c2cnc(Nc3ccc(N4CCNCC4)cn3)nc2n(C2CCCC2)c1=O [Palbociclib] + CN(CC[C@H](CSC1=CC=CC=C1)NC2=C(C=C(C=C2)S(=O)(=O)NC(=O)C3=CC=C(C=C3)N4CCC(CC4)[C@H](C5=CC=CC=C5C6=CC=C(C=C6)Cl)O)S(=O)(=O)C(F)(F)F)CCO [AZD4320] (first compound max 10 µM, 7x7, partner max 1 µM) |  |  |  | 0.276 | 0.877 |  |  |  |  | 0.387 | 1 | 0.311 |  | 0.141 |  | 0.494 | 0.358 | 0.348 |  | 0.709
